For six molecules, IC50 and Ki results are on record in ChEMBL document CHEMBL1909046, “DrugMatrix in vitro pharmacology data”.

Structures are written as SMILES.

For one experiment, the target named is Tyrosine-protein kinase Fyn (Homo sapiens, UniProt P06241). Briefly: biochemical. The following applies: insect cells. The experiment is classed as cell-based, Insect cells.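 Also: enzymatic inhibition of Fyn kinase activity measured with Poly(Glu:Tyr) as the phosphorylation substrate; in other assays of this panel Not Active means under 50% inhibition at 10 µM.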
Sequence of Tyrosine-protein kinase Fyn (P06241 whole entry): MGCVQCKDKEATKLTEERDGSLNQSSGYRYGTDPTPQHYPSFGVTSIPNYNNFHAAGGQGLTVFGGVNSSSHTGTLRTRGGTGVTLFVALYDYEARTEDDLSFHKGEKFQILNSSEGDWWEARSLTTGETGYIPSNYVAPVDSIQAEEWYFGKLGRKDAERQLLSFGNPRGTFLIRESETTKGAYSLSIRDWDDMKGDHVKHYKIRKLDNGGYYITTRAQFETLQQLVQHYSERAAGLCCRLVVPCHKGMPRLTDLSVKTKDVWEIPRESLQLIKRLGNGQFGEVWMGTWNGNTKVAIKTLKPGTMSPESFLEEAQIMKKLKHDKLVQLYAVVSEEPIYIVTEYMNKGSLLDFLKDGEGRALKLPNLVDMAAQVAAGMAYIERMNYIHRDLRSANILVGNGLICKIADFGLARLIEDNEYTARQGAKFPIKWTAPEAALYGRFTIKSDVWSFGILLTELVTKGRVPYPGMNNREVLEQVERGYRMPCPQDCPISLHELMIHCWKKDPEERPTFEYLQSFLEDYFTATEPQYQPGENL
Broadly, the IC50 is the midpoint of a concentration-inhibition curve. Turning to `CN[C@H]1CC[C@@H](c2ccc(Cl)c(Cl)c2)c2ccccc21` [SERTRALINE], the IC50 entry is reported as “Not Active”.

In the case of `COc1cc2nc(N3CCN(C(=O)C4CCCO4)CC3)nc(N)c2cc1OC` (centres undefined) [TERAZOSIN], the IC50 result is given as “Not Active”.

The experiment is the same for the next values; noted with them: read-out: IC50.
Regarding `Cc1c(C)c2c(c(C)c1O)CCC(C)(CN1CCN(c3cc(N4CCCC4)nc(N4CCCC4)n3)CC1)O2` (centres undefined), the IC50 was 1.65 µM.

In the case of `Clc1ccc(COC(Cn2ccnc2)c2ccc(Cl)cc2Cl)cc1` (centres undefined) [ECONAZOLE], the IC50 amounted to 12.1 µM.

As to `CCN(CC)CCOc1ccc(/C(=C(/Cl)c2ccccc2)c2ccccc2)cc1` [ENCLOMIPHENE], the IC50 amounted to 2.51 µM.

The next experiment concerns the target T1, 3-hydroxy-3-methylglutaryl-coenzyme A reductase (Homo sapiens, UniProt P04035).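 Also: enzyme inhibition assay of HMG-CoA reductase using radiolabeled [14C]HMG-CoA as substrate; in other assays of this panel Not Active means under 50% inhibition at 10 µM.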
T1 sequence (P04035 whole entry): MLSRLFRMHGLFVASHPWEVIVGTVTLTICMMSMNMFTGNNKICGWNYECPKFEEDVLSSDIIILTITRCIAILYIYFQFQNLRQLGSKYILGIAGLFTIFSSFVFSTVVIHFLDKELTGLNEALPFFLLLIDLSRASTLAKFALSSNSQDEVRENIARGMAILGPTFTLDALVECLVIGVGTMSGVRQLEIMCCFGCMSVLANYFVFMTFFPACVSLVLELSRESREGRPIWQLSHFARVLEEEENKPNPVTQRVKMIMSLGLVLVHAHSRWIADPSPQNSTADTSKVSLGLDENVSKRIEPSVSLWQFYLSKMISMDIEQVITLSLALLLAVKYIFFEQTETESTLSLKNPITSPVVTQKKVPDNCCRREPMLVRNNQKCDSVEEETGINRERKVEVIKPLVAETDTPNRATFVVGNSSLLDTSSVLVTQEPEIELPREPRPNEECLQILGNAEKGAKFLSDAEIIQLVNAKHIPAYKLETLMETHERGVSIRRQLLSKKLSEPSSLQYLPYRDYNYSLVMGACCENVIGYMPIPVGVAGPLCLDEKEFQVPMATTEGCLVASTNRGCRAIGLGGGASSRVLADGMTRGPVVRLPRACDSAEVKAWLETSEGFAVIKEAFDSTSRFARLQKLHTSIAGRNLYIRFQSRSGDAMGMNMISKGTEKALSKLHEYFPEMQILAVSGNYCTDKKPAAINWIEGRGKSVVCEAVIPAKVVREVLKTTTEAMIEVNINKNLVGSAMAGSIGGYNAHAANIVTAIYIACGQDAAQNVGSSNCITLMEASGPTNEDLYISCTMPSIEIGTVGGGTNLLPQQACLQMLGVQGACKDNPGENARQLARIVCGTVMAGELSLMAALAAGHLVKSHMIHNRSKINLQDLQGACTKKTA
Experiment: not given
The arrangement: species or system Escherichia coli.
Details: not given
For `Cc1c(C)c2c(c(C)c1O)CCC(C)(CN1CCN(c3cc(N4CCCC4)nc(N4CCCC4)n3)CC1)O2` (centres undefined), the IC50 entry is listed as “Not Active”.

For the molecule `Clc1ccc(COC(Cn2ccnc2)c2ccc(Cl)cc2Cl)cc1` (centres undefined) [ECONAZOLE], the IC50 result was “Not Active”.

For the molecule `CCN(CC)CCOc1ccc(/C(=C(/Cl)c2ccccc2)c2ccccc2)cc1` [ENCLOMIPHENE], the half-inhibitory concentration (IC50) entry is given as “Not Active”.

Take `Cc1ccc(NC(=O)c2ccc(CN3CCN(C)CC3)cc2)cc1Nc1nccc(-c2cccnc2)n1` [IMATINIB]: the IC50 entry is reported as “Not Active”.

Regarding `CN[C@H]1CC[C@@H](c2ccc(Cl)c(Cl)c2)c2ccccc21` [SERTRALINE], the IC50 result was “Not Active”.

For the molecule `COc1cc2nc(N3CCN(C(=O)C4CCCO4)CC3)nc(N)c2cc1OC` (centres undefined) [TERAZOSIN], the half-inhibitory concentration (IC50) entry was “Not Active”.

The next experiment deals with Receptor tyrosine-protein kinase erbB-2 (Homo sapiens, UniProt P04626). As to the kind of experiment: biochemical. The following applies: insect cells. The experiment is classed as cell-based, Insect cells.
Sequence of Receptor tyrosine-protein kinase erbB-2 (P04626 whole entry): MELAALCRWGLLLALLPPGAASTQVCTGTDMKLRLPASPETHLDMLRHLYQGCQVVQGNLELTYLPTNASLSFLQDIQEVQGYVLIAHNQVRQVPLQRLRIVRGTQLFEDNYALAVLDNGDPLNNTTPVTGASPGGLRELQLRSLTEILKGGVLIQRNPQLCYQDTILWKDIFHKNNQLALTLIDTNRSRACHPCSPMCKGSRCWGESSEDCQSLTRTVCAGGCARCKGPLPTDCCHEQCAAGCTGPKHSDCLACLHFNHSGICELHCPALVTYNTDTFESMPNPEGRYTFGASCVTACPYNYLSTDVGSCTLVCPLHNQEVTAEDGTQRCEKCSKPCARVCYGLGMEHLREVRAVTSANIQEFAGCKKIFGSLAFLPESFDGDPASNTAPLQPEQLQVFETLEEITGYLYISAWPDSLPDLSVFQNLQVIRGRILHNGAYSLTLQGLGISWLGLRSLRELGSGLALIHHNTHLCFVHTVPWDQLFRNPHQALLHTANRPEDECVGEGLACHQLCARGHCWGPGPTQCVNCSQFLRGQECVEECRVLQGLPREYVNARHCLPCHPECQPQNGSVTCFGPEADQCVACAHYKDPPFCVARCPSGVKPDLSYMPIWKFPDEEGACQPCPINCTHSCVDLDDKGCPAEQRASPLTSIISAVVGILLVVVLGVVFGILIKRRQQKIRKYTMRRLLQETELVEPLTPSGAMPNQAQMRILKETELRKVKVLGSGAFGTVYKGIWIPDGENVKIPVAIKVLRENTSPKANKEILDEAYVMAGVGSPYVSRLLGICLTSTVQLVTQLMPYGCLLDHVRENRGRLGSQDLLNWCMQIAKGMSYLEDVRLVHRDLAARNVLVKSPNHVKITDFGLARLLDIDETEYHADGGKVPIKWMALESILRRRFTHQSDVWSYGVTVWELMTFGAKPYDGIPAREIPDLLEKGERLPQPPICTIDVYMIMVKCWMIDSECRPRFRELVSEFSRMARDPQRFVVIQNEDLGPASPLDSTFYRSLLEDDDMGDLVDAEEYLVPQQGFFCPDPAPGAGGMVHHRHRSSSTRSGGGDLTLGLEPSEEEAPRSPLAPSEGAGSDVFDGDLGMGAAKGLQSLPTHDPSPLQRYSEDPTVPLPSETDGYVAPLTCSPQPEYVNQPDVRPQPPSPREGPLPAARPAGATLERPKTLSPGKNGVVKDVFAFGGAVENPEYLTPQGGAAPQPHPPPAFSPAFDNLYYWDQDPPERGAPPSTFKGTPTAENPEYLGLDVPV
Consider `Cc1c(C)c2c(c(C)c1O)CCC(C)(CN1CCN(c3cc(N4CCCC4)nc(N4CCCC4)n3)CC1)O2` (centres undefined), for which the IC50 entry is “Not Active”.

Turning to `CN[C@H]1CC[C@@H](c2ccc(Cl)c(Cl)c2)c2ccccc21` [SERTRALINE], the IC50 result was “Not Active”.

For the molecule `COc1cc2nc(N3CCN(C(=O)C4CCCO4)CC3)nc(N)c2cc1OC` (centres undefined) [TERAZOSIN], the IC50 entry is “Not Active”.

Staying with this experiment, now noted: read-out: IC50.
As for `Clc1ccc(COC(Cn2ccnc2)c2ccc(Cl)cc2Cl)cc1` (centres undefined) [ECONAZOLE], the IC50 worked out at 13.9 µM.

Turning to `CCN(CC)CCOc1ccc(/C(=C(/Cl)c2ccccc2)c2ccccc2)cc1` [ENCLOMIPHENE], the IC50 worked out at 1.67 µM.

In another experiment the target is Platelet-activating factor receptor (Homo sapiens, UniProt P25105). Also: in other assays of this panel Not Active means under 50% inhibition at 10 µM.
Sequence of Platelet-activating factor receptor (P25105 whole entry): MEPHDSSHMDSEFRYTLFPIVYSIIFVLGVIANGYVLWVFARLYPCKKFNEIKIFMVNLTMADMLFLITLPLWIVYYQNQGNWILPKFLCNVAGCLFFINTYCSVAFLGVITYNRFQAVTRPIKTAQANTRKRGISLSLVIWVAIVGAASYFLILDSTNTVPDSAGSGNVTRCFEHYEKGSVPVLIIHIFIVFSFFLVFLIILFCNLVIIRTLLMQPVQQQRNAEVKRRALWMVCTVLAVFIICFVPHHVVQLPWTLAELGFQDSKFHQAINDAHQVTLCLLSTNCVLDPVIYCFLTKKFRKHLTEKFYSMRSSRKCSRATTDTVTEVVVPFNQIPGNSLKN
Experiment: not given
The experiment is classed as tissue-based.
Details: not given
For `Cc1c(C)c2c(c(C)c1O)CCC(C)(CN1CCN(c3cc(N4CCCC4)nc(N4CCCC4)n3)CC1)O2` (centres undefined), the IC50 entry is “Not Active”.

Consider `Clc1ccc(COC(Cn2ccnc2)c2ccc(Cl)cc2Cl)cc1` (centres undefined) [ECONAZOLE], for which the IC50 result was “Not Active”.

Regarding `CCN(CC)CCOc1ccc(/C(=C(/Cl)c2ccccc2)c2ccccc2)cc1` [ENCLOMIPHENE], the 50% inhibitory concentration (IC50) entry was “Not Active”.

`Cc1ccc(NC(=O)c2ccc(CN3CCN(C)CC3)cc2)cc1Nc1nccc(-c2cccnc2)n1` [IMATINIB]: the IC50 result is “Not Active”.

`CN[C@H]1CC[C@@H](c2ccc(Cl)c(Cl)c2)c2ccccc21` [SERTRALINE]: the concentration for half-maximal inhibition (IC50) result is “Not Active”.

On to `COc1cc2nc(N3CCN(C(=O)C4CCCO4)CC3)nc(N)c2cc1OC` (centres undefined) [TERAZOSIN], for which the IC50 result is “Not Active”.

A further experiment has as its target T2, Alpha-2C adrenergic receptor (Homo sapiens, UniProt P18825).
T2 sequence (P18825 whole entry): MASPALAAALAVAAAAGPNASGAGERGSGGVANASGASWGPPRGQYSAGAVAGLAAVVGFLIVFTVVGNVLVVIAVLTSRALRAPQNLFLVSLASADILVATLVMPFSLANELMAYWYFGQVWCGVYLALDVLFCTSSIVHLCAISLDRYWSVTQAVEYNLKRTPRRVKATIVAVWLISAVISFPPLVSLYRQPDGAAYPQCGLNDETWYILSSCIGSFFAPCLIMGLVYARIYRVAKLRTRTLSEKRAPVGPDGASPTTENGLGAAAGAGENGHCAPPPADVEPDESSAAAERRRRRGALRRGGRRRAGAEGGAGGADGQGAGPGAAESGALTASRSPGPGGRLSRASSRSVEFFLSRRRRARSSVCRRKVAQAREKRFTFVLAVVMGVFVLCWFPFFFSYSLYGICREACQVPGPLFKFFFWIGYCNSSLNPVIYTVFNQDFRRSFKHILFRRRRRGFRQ
As to the kind of experiment: DRUGMATRIX: Adrenergic Alpha-2C radioligand binding (ligand: [3H] MK-912). As to IC50: call rule not given here. It is filed as cell membranes, Sf9, Membrane. Conditions: read-out: IC50.
As to `CCN(CC)CCOc1ccc(/C(=C(/Cl)c2ccccc2)c2ccccc2)cc1` [ENCLOMIPHENE], the IC50 amounted to 1.48 µM.

Still in this experiment, the particulars now being: read-out: Ki.
By Ki is commonly meant a measure of affinity in units of concentration, obtained from inhibition or displacement. On to `CCN(CC)CCOc1ccc(/C(=C(/Cl)c2ccccc2)c2ccccc2)cc1` [ENCLOMIPHENE], for which the Ki was determined as 0.215 µM.

Staying with this experiment, now noted: sf9.
Take `Cc1c(C)c2c(c(C)c1O)CCC(C)(CN1CCN(c3cc(N4CCCC4)nc(N4CCCC4)n3)CC1)O2` (centres undefined): the IC50 entry is “Not Active”.

Take `Clc1ccc(COC(Cn2ccnc2)c2ccc(Cl)cc2Cl)cc1` (centres undefined) [ECONAZOLE]: the IC50 entry was “Not Active”.

Consider `Cc1ccc(NC(=O)c2ccc(CN3CCN(C)CC3)cc2)cc1Nc1nccc(-c2cccnc2)n1` [IMATINIB], for which the IC50 result is given as “Not Active”.

In another experiment the target is Glycine receptor (Rattus norvegicus, UniProt P22771+P24524+P07727+P20781). Also: in other assays of this panel Not Active means under 50% inhibition at 10 µM.
Experiment: not given
The experiment is classed as cell membranes, Wistar, Spinal cord, Membrane.
Details: not given
For `Cc1c(C)c2c(c(C)c1O)CCC(C)(CN1CCN(c3cc(N4CCCC4)nc(N4CCCC4)n3)CC1)O2` (centres undefined), the 50% inhibitory concentration (IC50) entry is recorded as “Not Active”.

On to `Clc1ccc(COC(Cn2ccnc2)c2ccc(Cl)cc2Cl)cc1` (centres undefined) [ECONAZOLE], for which the IC50 result was “Not Active”.

On to `CCN(CC)CCOc1ccc(/C(=C(/Cl)c2ccccc2)c2ccccc2)cc1` [ENCLOMIPHENE], for which the IC50 result is reported as “Not Active”.

Turning to `Cc1ccc(NC(=O)c2ccc(CN3CCN(C)CC3)cc2)cc1Nc1nccc(-c2cccnc2)n1` [IMATINIB], the IC50 entry is recorded as “Not Active”.

Take `CN[C@H]1CC[C@@H](c2ccc(Cl)c(Cl)c2)c2ccccc21` [SERTRALINE]: the IC50 result is recorded as “Not Active”.

For `COc1cc2nc(N3CCN(C(=O)C4CCCO4)CC3)nc(N)c2cc1OC` (centres undefined) [TERAZOSIN], the 50% inhibitory concentration (IC50) result was “Not Active”.

The target of the next experiment is T3, Type-2 angiotensin II receptor (Homo sapiens, UniProt P50052). Also: in other assays of this panel Not Active means under 50% inhibition at 10 µM.
T3 sequence (P50052 whole entry): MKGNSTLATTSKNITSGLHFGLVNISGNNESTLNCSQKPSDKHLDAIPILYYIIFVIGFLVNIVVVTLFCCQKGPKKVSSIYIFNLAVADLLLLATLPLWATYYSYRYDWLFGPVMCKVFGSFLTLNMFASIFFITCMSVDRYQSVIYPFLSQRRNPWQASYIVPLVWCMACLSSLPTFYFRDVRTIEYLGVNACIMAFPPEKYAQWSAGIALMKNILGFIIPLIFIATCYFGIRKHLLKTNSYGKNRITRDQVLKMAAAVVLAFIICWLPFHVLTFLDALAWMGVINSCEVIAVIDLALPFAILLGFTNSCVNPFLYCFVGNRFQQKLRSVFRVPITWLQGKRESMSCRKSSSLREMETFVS
Experiment: not given
The experiment is classed as cell-based. Conditions: cho-k1.
Take `Cc1c(C)c2c(c(C)c1O)CCC(C)(CN1CCN(c3cc(N4CCCC4)nc(N4CCCC4)n3)CC1)O2` (centres undefined): the IC50 entry is “Not Active”.

`Clc1ccc(COC(Cn2ccnc2)c2ccc(Cl)cc2Cl)cc1` (centres undefined) [ECONAZOLE]: the IC50 result was “Not Active”.

As for `CCN(CC)CCOc1ccc(/C(=C(/Cl)c2ccccc2)c2ccccc2)cc1` [ENCLOMIPHENE], the IC50 entry was “Not Active”.

Consider `Cc1ccc(NC(=O)c2ccc(CN3CCN(C)CC3)cc2)cc1Nc1nccc(-c2cccnc2)n1` [IMATINIB], for which the IC50 result was “Not Active”.

Regarding `CN[C@H]1CC[C@@H](c2ccc(Cl)c(Cl)c2)c2ccccc21` [SERTRALINE], the IC50 result was “Not Active”.

Regarding `COc1cc2nc(N3CCN(C(=O)C4CCCO4)CC3)nc(N)c2cc1OC` (centres undefined) [TERAZOSIN], the half-maximal inhibitory concentration (IC50) result is “Not Active”.
